Data taken from US8143243B2, “Compounds for the treatment of hepatitis C” (Bristol-Myers Squibb Company, priority 2007, dated 2012).
Where two headings read alike, the source gives them in different places.

Assays:
[1] = target: T1, HCV NS5B (Hepatitis C virus genotype 1b, UniProt Q9WMX2); experiment: HCV NS5B RdRp enzyme assay (standard / modified); assay type: biochemical
T1 construct: The protein was expressed with an 18 amino acid C-terminal truncation to enhance the solubility; made in house; host or cells: E. coli BL21 (DE3)
T1 sequence (Q9WMX2 2420-2992): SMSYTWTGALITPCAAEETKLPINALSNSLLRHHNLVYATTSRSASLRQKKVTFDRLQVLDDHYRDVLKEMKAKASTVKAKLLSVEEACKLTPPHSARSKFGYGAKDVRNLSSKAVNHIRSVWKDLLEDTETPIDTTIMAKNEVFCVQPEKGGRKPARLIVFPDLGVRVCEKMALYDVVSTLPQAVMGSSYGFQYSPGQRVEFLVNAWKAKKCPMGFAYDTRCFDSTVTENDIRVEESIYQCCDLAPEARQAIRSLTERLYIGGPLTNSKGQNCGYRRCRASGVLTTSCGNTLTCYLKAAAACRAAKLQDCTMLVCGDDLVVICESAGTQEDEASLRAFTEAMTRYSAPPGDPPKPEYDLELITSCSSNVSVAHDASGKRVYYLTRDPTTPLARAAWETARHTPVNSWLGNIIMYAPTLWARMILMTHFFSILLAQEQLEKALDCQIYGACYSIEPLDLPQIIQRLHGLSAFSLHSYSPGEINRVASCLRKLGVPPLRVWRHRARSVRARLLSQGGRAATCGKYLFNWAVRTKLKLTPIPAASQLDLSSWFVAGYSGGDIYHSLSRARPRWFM
Procedure, shortened: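 NS5B genotype 1b, 18-aa C-terminal truncation, E. coli-expressed; polyA template with biotinylated oligo-dT12 primer, 3H-UTP 0.29 μM, 30° C, SPA read-out in 20 mM Hepes pH 7.5, 2% DMSO. Standard: 28 nM enzyme, 6 nM template, 180 nM primer, 60 min; modified: 14 nM enzyme, 0.2 nM template, 20 nM bead-precaptured primer, 4 h. IC50 from seven concentrations.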

[2] = system: HCV replicon cells; experiment: HCV replicon FRET / luciferase assay; assay type: cell-based; conditions: Hepatitis C virus
Procedure, shortened: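 Replicon cells + titrated cpds, 37 °C CO2. Alamar blue for cytotoxicity, PBS rinse, then lysis reagent w/ 20 μM FRET peptide (EDANS/DABCYL), 150 mM NaCl; kinetic read ex340/em490, 20 cycles. Alt: Dual-Glo luciferase. EC50 = 50% drop in FRET/luciferase signal after background subtraction.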

[3] = HCV RdRp genotype 1b enzyme, read-out: IC50
[4] = HCV replicon cells, FRET or luciferase readout, read-out: EC50

Row | SMILES | IC50 [1] [nM] | EC50 [2] [nM] | IC50 [1, 3] [nM] | EC50 [2, 4] [nM]
1 | COc1ccc2c(c1)C=C(c1c(C(=O)N3C4CCC3CN(C)C4)cnn1C)Cn1c-2c(C2CCCCC2)c2ccc(C(=O)NS(=O)(=O)C3CC3)cc21 | 1 to 500 | 1 to 500 |  | 
2 | COc1ccc2c(c1)C=C(c1c(C(=O)N3CCN(C(C)C)CC3)cnn1C)Cn1c-2c(C2CCCCC2)c2ccc(C(=O)NS(=O)(=O)C(C)C)cc21 |  |  | 1 to 500 | 1 to 500
3 | COc1ccc2c(c1)C=C(c1c(C(=O)N3CC4CCC(C3)O4)cnn1C)Cn1c-2c(C2CCCCC2)c2ccc(C(=O)NS(=O)(=O)C(C)C)cc21 |  |  | < 20 | 1 to 500
4 | CCn1nc(C)c(C(=O)N2C[C@@H]3C[C@H]2CO3)c1C1=Cc2cc(OC)ccc2-c2c(C3CCCCC3)c3ccc(C(=O)NS(=O)(=O)C(C)C)cc3n2C1 |  |  | 1 to 500 | 1 to 500
5 | CCn1ncc(C(=O)N2CCOCC2)c1C1=Cc2cc(OC)ccc2-c2c(C3CCCCC3)c3ccc(C(=O)NS(=O)(=O)N4CCCC4)cc3n2C1 |  |  | 1 to 500 | 1 to 500
6 | CCN1C[C@@H]2C[C@H]1CN2C(=O)c1cnn(CC(F)(F)F)c1C1=Cc2cc(OC)ccc2-c2c(C3CCCCC3)c3ccc(C(=O)NS(=O)(=O)C(C)C)cc3n2C1 |  |  | 1 to 500 | 1 to 500
7 | CCN1C[C@@H]2C[C@H]1CN2C(=O)c1c(C)nn(C(C)C)c1C1=Cc2cc(OC)ccc2-c2c(C3CCCCC3)c3ccc(C(=O)NS(=O)(=O)C(C)C)cc3n2C1 |  |  | 1 to 500 | 1 to 500
8 | COc1ccc2c(c1)C=C(c1c(C(=O)N3C4CC3CN(C)C4)cnn1C(C)C)Cn1c-2c(C2CCCCC2)c2ccc(C(=O)NS(=O)(=O)C(C)C)cc21 |  |  | 1 to 500 | 1 to 500
9 | COc1ccc2c(c1)C=C(c1c(C(=O)O)cnn1C)Cn1c-2c(C2CCCCC2)c2ccc(C(=O)O)cc21 |  |  | 1 to 500 | > 40
10 | CCC(C)S(=O)(=O)NC(=O)c1ccc2c(C3CCCCC3)c3n(c2c1)CC(c1c(C(=O)N2CCOCC2)cnn1C)=Cc1cc(OC)ccc1-3 (stereo not drawn) |  |  | 1 to 500 | 1 to 500
11 | COc1ccc2c(c1)C=C(c1c(C(=O)N3CC4CCC(C3)N4C)cnn1C(C)C)Cn1c-2c(C2CCCCC2)c2ccc(C(=O)NS(=O)(=O)C(C)C)cc21 | 1 to 500 | 1 to 500 |  | 
12 | COc1ccc2c(c1)C=C(c1c(C(=O)N3CCC(N4CCCC4)CC3)cnn1C)Cn1c-2c(C2CCCCC2)c2ccc(C(=O)NS(=O)(=O)C(C)C)cc21 |  |  | 1 to 500 | 1 to 500
13 | COc1ccc2c(c1)C=C(c1c(C(=O)N3C[C@@H](C)O[C@@H](C)C3)cnn1CC(F)(F)F)Cn1c-2c(C2CCCCC2)c2ccc(C(=O)NS(=O)(=O)C(C)C)cc21 |  |  | 1 to 500 | 1 to 500
14 | CCn1ncc(C(=O)N2C[C@@H]3C[C@H]2CO3)c1C1=Cc2cc(OC)ccc2-c2c(C3CCCCC3)c3ccc(C(=O)NS(=O)(=O)C(C)C)cc3n2C1 |  |  | 1 to 500 | 1 to 500
15 | COc1ccc2c(c1)C=C(c1c(C(=O)N3CCOCC3)c(C)nn1C(C)C)Cn1c-2c(C2CCCCC2)c2ccc(C(=O)NS(=O)(=O)C(C)C)cc21 |  |  | 1 to 500 | 1 to 500
16 | COc1ccc2c(c1)C=C(c1ccsc1C(=O)N1CCOCC1)Cn1c-2c(C2CCCCC2)c2ccc(C(=O)NS(=O)(=O)N(C)C)cc21 |  |  | 1 to 500 | 1 to 500
17 | COc1ccc2c(c1)C=C(c1c(C(=O)N3C[C@@H](C)N(C)[C@@H](C)C3)cnn1C)Cn1c-2c(C2CCCCC2)c2ccc(C(=O)NS(=O)(=O)C(C)C)cc21 |  |  | 1 to 500 | 1 to 500
18 | COc1ccc2c(c1)C=C(c1c(C(=O)N3C4CCC3CN(C)C4)cnn1C)Cn1c-2c(C2CCCCC2)c2ccc(C(=O)NS(=O)(=O)C(C)C)cc21 | 1 to 500 | 1 to 500 |  | 
19 | COc1ccc2c(c1)C=C(c1c(C(=O)N3C4CCC3CN(C)C4)cnn1C)Cn1c-2c(C2CCCCC2)c2ccc(C(=O)NS(=O)(=O)N(C)C)cc21 | 1 to 500 | 1 to 500 |  | 
20 | CCn1ncc(C(=O)N2CCOCC2)c1C1=Cc2cc(OC)ccc2-c2c(C3CCCCC3)c3ccc(C(=O)NS(=O)(=O)C(C)C)cc3n2C1 |  |  | 1 to 500 | 1 to 500
21 | COc1ccc2c(c1)C=C(c1c(C(=O)N3CCCC4(CCNC4=O)C3)cnn1C)Cn1c-2c(C2CCCCC2)c2ccc(C(=O)NS(=O)(=O)N3CCOCC3)cc21 (stereo not drawn) |  |  | 1 to 500 | 1 to 500

Row | SMILES | IC50 [1] [nM] | EC50 [2] [nM] | IC50 [1, 3] [nM] | EC50 [2, 4] [nM]
22 | CCn1ncc(C(=O)N2CCOCC2)c1C1=Cc2cc(OC)ccc2-c2c(C3CCCCC3)c3ccc(C(=O)NS(=O)(=O)N(C)C)cc3n2C1 |  |  | 1 to 500 | 1 to 500
23 | COc1ccc2c(c1)C=C(c1c(C(=O)N3CCOC(CN(C)C)C3)cnn1C)Cn1c-2c(C2CCCCC2)c2ccc(C(=O)NS(=O)(=O)N3CCOCC3)cc21 (stereo not drawn) |  |  | 1 to 500 | 1 to 500
24 | COc1ccc2c(c1)C=C(c1c(C(=O)N3C4CCC3CN(C)C4)cnn1C)Cn1c-2c(C2CCCCC2)c2ccc(C(=O)NS(=O)(=O)CC(C)C)cc21 | 1 to 500 | 1 to 500 |  | 
25 | COC[C@@H]1CN(C(=O)c2cnn(C(C)C)c2C2=Cc3cc(OC)ccc3-c3c(C4CCCCC4)c4ccc(C(=O)NS(=O)(=O)CC(C)C)cc4n3C2)CCO1 |  |  | 1 to 500 | 1 to 500
26 | COc1ccc2c(c1)C=C(c1c(C(=O)N3CCOCC3)c(C)nn1C)Cn1c-2c(C2CCCCC2)c2ccc(C(=O)NS(=O)(=O)C(C)C)cc21 |  |  | 1 to 500 | 1 to 500
27 | COc1ccc2c(c1)C=C(c1c(C(=O)N3[C@@H]4CC[C@H]3C[C@@](C)(O)C4)cnn1C)Cn1c-2c(C2CCCCC2)c2ccc(C(=O)NS(=O)(=O)N3CCOCC3)cc21 | 1 to 500 | 1 to 500 |  | 
28 | COC(=O)c1c(C)nn(C)c1C1=Cc2cc(OC)ccc2-c2c(C3CCCCC3)c3ccc(C(=O)O)cc3n2C1 |  |  | 1 to 500 | 1 to 500
29 | COc1ccc2c(c1)C=C(c1c(C(=O)N3CCOCC3)cnn1C)Cn1c-2c(C2CCCCC2)c2ccc(C(=O)O)cc21 |  |  | 1 to 500 | 1 to 500
30 | COc1ccc2c(c1)C=C(c1c(C(=O)N3C[C@@H](C)O[C@@H](C)C3)cnn1C)Cn1c-2c(C2CCCCC2)c2ccc(C(=O)NS(=O)(=O)N3CCOCC3)cc21 |  |  | 1 to 500 | 1 to 500
31 | COc1ccc2c(c1)C=C(c1c(C(=O)N3C[C@@H]4C[C@H]3CO4)cnn1C(C)C)Cn1c-2c(C2CCCCC2)c2ccc(C(=O)NS(=O)(=O)C(C)C)cc21 |  |  | 1 to 500 | 1 to 500
32 | COc1ccc2c(c1)C=C(c1occc1C(=O)N1CCOCC1)Cn1c-2c(C2CCCCC2)c2ccc(C(=O)NS(=O)(=O)C(C)C)cc21 |  |  | 1 to 500 | 1 to 500
33 | COc1ccc2c(c1)C=C(c1c(C(=O)N3C[C@@H](C)N(C)[C@@H](C)C3)c(C(F)(F)F)nn1C)Cn1c-2c(C2CCCCC2)c2ccc(C(=O)NS(=O)(=O)C(C)C)cc21 |  |  | 1 to 500 | 1 to 500
34 | COc1ccc2c(c1)C=C(c1c(C(=O)N3C[C@@H](C)N(C)[C@@H](C)C3)c(C)nn1C)Cn1c-2c(C2CCCCC2)c2ccc(C(=O)NS(=O)(=O)C(C)C)cc21 |  |  | 1 to 500 | 1 to 500
35 | COc1ccc2c(c1)C=C(c1c(C(=O)N3C4CCC3CN(C)C4)c(C(F)(F)F)nn1C)Cn1c-2c(C2CCCCC2)c2ccc(C(=O)NS(=O)(=O)C(C)C)cc21 | 1 to 500 | 1 to 500 |  | 
36 | COc1ccc2c(c1)C=C(c1c(C(=O)N3CC4CCC(C3)O4)c(C(F)(F)F)nn1C)Cn1c-2c(C2CCCCC2)c2ccc(C(=O)NS(=O)(=O)C(C)C)cc21 |  |  | 1 to 500 | 1 to 500
37 | COc1ccc2c(c1)C=C(c1c(C(=O)N(CCN(C(C)C)C(C)C)C(C)C)cnn1C)Cn1c-2c(C2CCCCC2)c2ccc(C(=O)NS(=O)(=O)C(C)C)cc21 |  |  | 1 to 500 | 1 to 500
38 | COc1ccc2c(c1)C=C(c1c(C(=O)N3C4COCC3COC4)cnn1C(C)C)Cn1c-2c(C2CCCCC2)c2ccc(C(=O)NS(=O)(=O)C(C)C)cc21 | 1 to 500 | 1 to 500 |  | 
39 | COc1ccc2c(c1)C=C(c1c(C(=O)O)c(C)nn1C)Cn1c-2c(C2CCCCC2)c2ccc(C(=O)NS(=O)(=O)CC(C)C)cc21 |  |  | 1 to 500 | > 40
40 | COc1ccc2c(c1)C=C(c1c(C(=O)N(C)C)cnn1C)Cn1c-2c(C2CCCCC2)c2ccc(C(=O)NS(=O)(=O)C(C)C)cc21 |  |  | 1 to 500 | 1 to 500
41 | COc1ccc2c(c1)C=C(c1c(C(=O)N3[C@@H]4CC[C@H]3CN(C)C4)cnn1C)Cn1c-2c(C2CCCCC2)c2ccc(C(=O)NS(=O)(=O)N3CCOCC3)cc21 | 1 to 500 | 1 to 500 |  | 
42 | CCn1ncc(C(=O)N2CCO[C@@H](COC)C2)c1C1=Cc2cc(OC)ccc2-c2c(C3CCCCC3)c3ccc(C(=O)NS(=O)(=O)C(C)C)cc3n2C1 |  |  | 1 to 500 | 1 to 500
